Experimental data: ChEMBL document CHEMBL5385906, “Discovery of a Potent, Selective, and Orally Bioavailable Tool Compound for Probing the Role of Lysophosphatidic Acid Type 2 Receptor Antagonists in Fibrotic Disorders” (J Med Chem, 2023)

What was measured:
[1] = biological target: Lysophosphatidic acid receptor 1 (Homo sapiens, UniProt Q92633)
Description: Antagonist activity at human LPA1 receptor expressed in CHO cells assessed as inhibition of LPA-induced calcium mobilization pretreated for 15 mins followed by LPA stimulation by FLIPR analysis

[2] = Half life in C57BL/6J mouse at 30 mg/kg, po and 2 mg/kg, iv by LC-MS/MS analysis; settings: in vivo
[3] = Protein binding in mouse lungs assessed as fraction unbound at 5 uM measured after 5 hrs by LC-MS/MS analysis
in vivo [4] = settings: C57BL/6J, mouse, lung, po, 30 mg/kg
[5] = Apparent permeability across apical to basolateral side in human Caco-2 cells at 10 uM measured after 60 mins by LC-MS/MS analysis
[6] = Apparent permeability across basolateral to apical side in human Caco-2 cells at 10 uM measured after 60 mins by LC-MS/MS analysis
in vivo [7] = settings: C57BL/6J, mouse, po, 30 mg/kg
[8] = biological target: Lysophosphatidic acid receptor 2 (Homo sapiens, UniProt Q9HBW0)
Sequence of Lysophosphatidic acid receptor 2 (Homo sapiens, UniProt Q9HBW0) (Q9HBW0 whole entry): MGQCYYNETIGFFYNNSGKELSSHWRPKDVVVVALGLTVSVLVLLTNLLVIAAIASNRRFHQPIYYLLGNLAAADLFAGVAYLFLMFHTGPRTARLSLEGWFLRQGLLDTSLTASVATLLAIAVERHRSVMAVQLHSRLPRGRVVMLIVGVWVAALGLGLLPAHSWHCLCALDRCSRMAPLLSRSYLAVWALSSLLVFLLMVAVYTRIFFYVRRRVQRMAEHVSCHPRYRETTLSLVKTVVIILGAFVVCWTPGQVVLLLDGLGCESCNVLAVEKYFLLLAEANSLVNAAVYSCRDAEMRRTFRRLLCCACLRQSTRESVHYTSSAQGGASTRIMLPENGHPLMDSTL
Description: Antagonist activity at human LPA2 receptor expressed in CHO cells assessed as inhibition of LPA-induced calcium mobilization pretreated for 15 mins followed by LPA stimulation by FLIPR analysis

in vivo [9] = settings: C57BL/6J, mouse, plasma, po, 30 mg/kg
[10] = Protein binding in mouse plasma assessed as fraction unbound at 0.5 uM measured after 5 hrs by LC-MS/MS analysis
[11] = Oral absorption in C57BL/6J mouse at 30 mg/kg by LC-MS/MS analysis; settings: in vivo
in vitro [12] = settings: human, liver microsomes, CLH
Description: Intrinsic clearance in human liver microsomes at 0.5 uM in presence of NADPH regenerating system measured for 45 mins per mg protein by LC-MS/MS analysis

[13] = Efflux ratio of apparent permeability across apical to basolateral to basolateral to apical side in human Caco-2 cells at 10 uM measured after 60 mins by LC-MS/MS analysis
in vitro [14] = settings: C57BL/6J, mouse, liver microsomes
Description: Intrinsic clearance in C57BL/6J mouse liver microsomes at 0.5 uM in presence of NADPH regenerating system measured for 45 mins per mg protein by LC-MS/MS analysis

[15] = Protein binding in human plasma assessed as fraction unbound at 0.5 uM measured after 5 hrs by LC-MS/MS analysis
in vivo [16] = settings: C57BL/6J, mouse, plasma, po, 30 mg/kg; remark: listed apart in the source
[17] = biological target: Lysophosphatidic acid receptor 2 (Mus musculus, UniProt Q9JL06); test: Antagonist activity at mouse LPA2 receptor expressed in HeLa cells assessed as inhibition of LPA-induced calcium mobilization pretreated for 15 mins followed by LPA stimulation by FLIPR analysis; assay type: functional, cell-based
Sequence of Lysophosphatidic acid receptor 2 (Mus musculus, UniProt Q9JL06) (Q9JL06 whole entry): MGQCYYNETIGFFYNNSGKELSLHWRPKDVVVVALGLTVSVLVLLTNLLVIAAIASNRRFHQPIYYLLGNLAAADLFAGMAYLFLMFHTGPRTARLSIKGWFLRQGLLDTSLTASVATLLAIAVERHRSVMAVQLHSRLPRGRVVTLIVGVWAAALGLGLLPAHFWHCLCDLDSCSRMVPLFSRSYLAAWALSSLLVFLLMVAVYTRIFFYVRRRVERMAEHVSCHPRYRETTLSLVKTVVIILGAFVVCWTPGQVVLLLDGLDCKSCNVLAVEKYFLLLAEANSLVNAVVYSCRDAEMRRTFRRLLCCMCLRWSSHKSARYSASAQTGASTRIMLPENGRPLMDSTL

in vivo [18] = settings: C57BL/6J, mouse, lung, po, 30 mg/kg; remark: listed apart in the source

Sequence of Lysophosphatidic acid receptor 1 (Q92633 whole entry): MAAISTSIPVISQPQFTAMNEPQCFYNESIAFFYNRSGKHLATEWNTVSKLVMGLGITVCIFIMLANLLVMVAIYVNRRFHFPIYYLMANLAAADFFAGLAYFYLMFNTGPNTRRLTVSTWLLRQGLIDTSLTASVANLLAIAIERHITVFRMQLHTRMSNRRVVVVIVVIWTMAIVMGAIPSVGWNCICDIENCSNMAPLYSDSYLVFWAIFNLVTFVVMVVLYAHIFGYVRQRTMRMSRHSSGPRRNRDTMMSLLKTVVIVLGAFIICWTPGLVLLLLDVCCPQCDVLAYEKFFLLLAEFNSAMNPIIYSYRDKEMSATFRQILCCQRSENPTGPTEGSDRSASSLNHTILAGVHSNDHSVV

COC(=O)Nc1nc(C)c(S(=O)(=O)N2CCN(C[C@H](C)Nc3ncnc4c(-c5c(C)noc5C)cccc34)CC2)s1
IC50 [1]: > 50.1 µM
half-life [2]: 1.32 h
fraction unbound at 5 h, 5 µM [3]: 0.0185
Cmax (in vivo [4]): 15100 ng/mL
Papp A→B at 1 h, 10 µM [5]: 1.47 ×10⁻⁶ cm/s
Papp B→A at 1 h, 10 µM [6]: 9.29 ×10⁻⁶ cm/s
bioavailability (in vivo [7]): 92%
IC50 [8]: 0.000759 µM
AUC(0-t) (in vivo [9]): 124000 ng·h/mL
fraction unbound at 5 h, 0.5 µM [10]: 0.0043
Fa [11]: 96%
microsomal CLint at 0.75 h, 0.5 µM (in vitro [12]): 89 µL/min/mg
efflux ratio at 1 h, 10 µM [13]: 6.3
microsomal CLint at 0.75 h, 0.5 µM (in vitro [14]): 94 µL/min/mg
fraction unbound at 5 h, 0.5 µM [15]: < 0.01
Cmax (in vivo [16]): 76200 ng/mL
IC50 ([17]; read-out: pIC50 (converted)): 0.0282 µM
AUC(0-t) (in vivo [18]): 25800 ng·h/mL

C[C@@H](CN1CCN(S(=O)(=O)c2ccc(Cl)c(Cl)c2)CC1)Nc1ncnc2cnn(C)c12
IC50 [8]: 17.4 µM

C[C@@H](CN1CCN(S(=O)(=O)c2ccc(Cl)c(Cl)c2)CC1)Nc1ncnc2cc[nH]c12
IC50 [8]: 15.8 µM

COC(=O)Nc1nc(C)c(S(=O)(=O)N2CCN(C[C@H](C)Nc3ncnc4c(-c5sc(C)nc5C)cccc34)CC2)s1
IC50 [1]: > 0.501 µM
half-life [2]: 1.88 h
fraction unbound at 5 h, 5 µM [3]: 0.022
Cmax (in vivo [4]): 19900 ng/mL
Papp A→B at 1 h, 10 µM [5]: 9.2 ×10⁻⁶ cm/s
Papp B→A at 1 h, 10 µM [6]: 5.39 ×10⁻⁶ cm/s
bioavailability (in vivo [7]): 64%
IC50 [8]: 0.000251 µM
AUC(0-t) (in vivo [9]): 230000 ng·h/mL
fraction unbound at 5 h, 0.5 µM [10]: 0.0372
Fa [11]: 76%
microsomal CLint at 0.75 h, 0.5 µM (in vitro [12]): 15 µL/min/mg
efflux ratio at 1 h, 10 µM [13]: 0.6
microsomal CLint at 0.75 h, 0.5 µM (in vitro [14]): 15 µL/min/mg
fraction unbound at 5 h, 0.5 µM [15]: 0.0002
Cmax (in vivo [16]): 72300 ng/mL
IC50 ([17]; read-out: pIC50 (converted)): 0.00692 µM
AUC(0-t) (in vivo [18]): 56200 ng·h/mL

COC(=O)Nc1nc(C)c(S(=O)(=O)N2CCN(C[C@H](C)Nc3ncnc4c(C(F)(F)F)cccc34)CC2)s1
IC50 [8]: 0.0447 µM

C[C@@H](CN1CCN(S(=O)(=O)c2ccc(Cl)c(Cl)c2)CC1)Nc1ncnc2cc(C(F)(F)F)ccc12
IC50 [8]: 18.2 µM

COC(=O)Nc1nc(C)c(S(=O)(=O)N2CCN(C[C@H](C)Nc3ncnc4c(-c5ccc(F)c(CN(C)C)c5)cccc34)CC2)s1
IC50 [1]: > 50.1 µM
IC50 ([17]; read-out: IC50): 0.00646 µM

COC(=O)Nc1nc(C)c(S(=O)(=O)N2CCN(C[C@H](C)Nc3ncnc4c(C(=O)N(C)C)cccc34)CC2)s1
IC50 ([17]; read-out: pIC50 (converted)): 3.98 µM

Cc1csc2c(N[C@@H](C)C(=O)N3CCN(S(=O)(=O)c4ccc(Cl)c(Cl)c4)CC3)ncnc12
IC50 [1]: > 50.1 µM

Cc1csc2c(N[C@@H](C)CN3CCN(S(=O)(=O)c4ccc(Cl)c(Cl)c4)CC34CC4)ncnc12
IC50 [8]: 9.33 µM

Cc1csc2c(NC3(CN4CCN(S(=O)(=O)c5ccc(Cl)c(Cl)c5)CC4)CC3)ncnc12
IC50 [8]: 8.32 µM

Cc1csc2c(N[C@@H](C)CN3CC4CC3CN4S(=O)(=O)c3ccc(Cl)c(Cl)c3)ncnc12 (some centres undefined)
IC50 [1]: 18.2 µM
IC50 [8]: 11.2 µM

Cc1noc(-c2ccc(S(=O)(=O)N3CCN(C[C@H](C)Nc4ncnc5c(C(F)(F)F)cccc45)CC3)s2)c1C
IC50 [8]: 0.00575 µM

Cc1csc2c(N[C@@H](C)CNC3CCC(NS(=O)(=O)c4ccc(Cl)c(Cl)c4)CC3)ncnc12 (some centres undefined)
IC50 [8]: 35.5 µM

Cc1noc(-c2ccc(S(=O)(=O)N3CCN(C[C@H](C)Nc4ncnc5c(C)csc45)CC3)s2)c1C
IC50 [8]: 0.0437 µM

CC(=O)Nc1ccc(S(=O)(=O)N2CCN(C[C@H](C)Nc3ncnc4c(C)csc34)CC2)cn1
IC50 [1]: > 50.1 µM
IC50 [8]: 13.8 µM

Cc1csc2c(N[C@@H](C)CNC3CCN(S(=O)(=O)c4ccc(Cl)c(Cl)c4)CC3)ncnc12
IC50 [8]: 17 µM

CC(=O)Nc1ccc(S(=O)(=O)N2CCN(C[C@H](C)Nc3ncnc4c(C)csc34)CC2)cc1Cl
IC50 [8]: 4.07 µM

C[C@@H](CN1CCN(S(=O)(=O)c2ccc(Cl)c(Cl)c2)CC1)Nc1ncnc2ccn(C)c12
IC50 [8]: 8.13 µM

Cc1csc2c(N3CCC[C@H]3CN3CCN(S(=O)(=O)c4ccc(Cl)c(Cl)c4)CC3)ncnc12
IC50 [8]: 30.2 µM

Cc1csc2c(N[C@@H](C)CN3CCN(S(=O)(=O)C(=O)c4ccc(Cl)c(Cl)c4)CC3)ncnc12
IC50 [8]: 16.2 µM

COC(=O)Nc1nc(C)c(S(=O)(=O)N2CCN(C[C@H](C)Nc3ncnc4c(-c5cccnc5)cccc34)CC2)s1
IC50 [1]: > 5.01 µM
IC50 ([17]; read-out: pIC50 (converted)): 0.00257 µM

COC(=O)Nc1nc(C)c(S(=O)(=O)N2CCN(C[C@H](C)Nc3ncnc4c(-c5ccc(CN6CCCC6)cc5)cccc34)CC2)s1
IC50 ([17]; read-out: pIC50 (converted)): 0.0174 µM

Cc1csc2c(N[C@@H](C)CN3CCC(NS(=O)(=O)c4ccc(Cl)c(Cl)c4)CC3)ncnc12
IC50 [8]: 6.61 µM

CC[C@@H](CN1CCN(S(=O)(=O)c2ccc(Cl)c(Cl)c2)CC1)Nc1ncnc2c(C)csc12
IC50 [8]: 6.17 µM

CC(=O)Nc1ncc(S(=O)(=O)N2CCN(C[C@H](C)Nc3ncnc4c(C)csc34)CC2)s1
IC50 [8]: 4.57 µM

COC(=O)Nc1nc(C)c(S(=O)(=O)N2CCN(C[C@H](C)Nc3ncnc4c(-c5cccnc5C)cccc34)CC2)s1
IC50 [1]: > 50.1 µM
half-life [2]: 1.74 h
fraction unbound at 5 h, 5 µM [3]: 0.0531
Cmax (in vivo [4]): 8450 ng/mL
Papp A→B at 1 h, 10 µM [5]: 4.17 ×10⁻⁶ cm/s
Papp B→A at 1 h, 10 µM [6]: 11.2 ×10⁻⁶ cm/s
bioavailability (in vivo [7]): 67%
IC50 [8]: 0.000447 µM
AUC(0-t) (in vivo [9]): 163000 ng·h/mL
fraction unbound at 5 h, 0.5 µM [10]: 0.0616
Fa [11]: 76%
microsomal CLint at 0.75 h, 0.5 µM (in vitro [12]): 21 µL/min/mg
efflux ratio at 1 h, 10 µM [13]: 2.7
microsomal CLint at 0.75 h, 0.5 µM (in vitro [14]): 13 µL/min/mg
Cmax (in vivo [16]): 81200 ng/mL
IC50 ([17]; read-out: pIC50 (converted)): 0.00646 µM
AUC(0-t) (in vivo [18]): 24300 ng·h/mL

Cc1csc2c(N[C@@H](C)CN3CCN(S(=O)(=O)C4CCCCC4)CC3)ncnc12
IC50 [8]: 25.1 µM

Cc1csc2c(N[C@@H](C)CN3CCN(S(=O)(=O)c4ccc(F)c(Cl)c4)CC3)ncnc12
IC50 [8]: 0.562 µM

Cc1ccc(S(=O)(=O)N2CCN(C[C@H](C)Nc3ncnc4c(C)csc34)CC2)cc1C
IC50 [8]: 2.82 µM

Cc1csc2c(N[C@@H](C)CN3CCN(S(=O)(=O)c4ccc(Cl)cc4Cl)CC3)ncnc12
IC50 [8]: 3.63 µM

Cc1csc2c(N[C@@H](C)CN3CCN(S(=O)(=O)c4ccccc4)CC3)ncnc12
IC50 [8]: 11.2 µM

Cc1cc2ncnc(NC(C)CN3CCN(S(=O)(=O)c4ccc(Cl)c(Cl)c4)CC3)c2s1 (racemic)
IC50 [1]: 10.5 µM
IC50 [8]: 13.5 µM

CC(CN1CCN(S(=O)(=O)c2ccc(Cl)c(Cl)c2)CC1)Nc1ncnc2c1ncn2C (racemic)
IC50 [1]: 20.4 µM
IC50 [8]: 19.1 µM

CC(CN1CCN(S(=O)(=O)c2ccc(Cl)c(Cl)c2)CC1)Nc1ncnc2c(-c3ccccc3)csc12 (racemic)
IC50 [1]: > 50.1 µM
IC50 [8]: 3.47 µM
microsomal CLint at 0.75 h, 0.5 µM (in vitro [12]): 228 µL/min/mg
microsomal CLint at 0.75 h, 0.5 µM (in vitro [14]): 270 µL/min/mg

CC(CN1CCN(S(=O)(=O)c2ccc(Cl)c(Cl)c2)CC1)Nc1ccncn1 (racemic)
IC50 [1]: 21.9 µM

Cc1csc2c(NC(C)CN3CCN(S(=O)(=O)c4ccc(Cl)c(Cl)c4)CC3)cccc12 (racemic)
IC50 [8]: > 50.1 µM

Cc1csc2c(NCC(C)N3CCN(S(=O)(=O)c4ccc(Cl)c(Cl)c4)CC3)ncnc12 (stereo in doubt; 6a)
IC50 [8]: 14.5 µM

Cc1csc2c(NCC(C)N3CCN(S(=O)(=O)c4ccc(Cl)c(Cl)c4)CC3)ncnc12 (stereo in doubt; 6b)
IC50 [8]: 6.17 µM

Cc1cccc2c(NC(C)CN3CCN(S(=O)(=O)c4ccc(Cl)c(Cl)c4)CC3)ncnc12 (stereo in doubt; 42a)
IC50 [1]: > 50.1 µM
IC50 [8]: > 50.1 µM

Cc1cccc2c(NC(C)CN3CCN(S(=O)(=O)c4ccc(Cl)c(Cl)c4)CC3)ncnc12 (stereo in doubt; 42b)
IC50 [1]: 12.6 µM
IC50 [8]: 4.17 µM
microsomal CLint at 0.75 h, 0.5 µM (in vitro [12]): 789 µL/min/mg
microsomal CLint at 0.75 h, 0.5 µM (in vitro [14]): 698 µL/min/mg
